In ChEMBL document CHEMBL1127162, “1,4-Diacylpiperazine-2-(S)-[(N-aminoalkyl)carboxamides] as novel, potent substance P receptor antagonists” (Bioorg Med Chem Lett, 1993):

Molecular target: Substance-P receptor (Homo sapiens, UniProt P25103)
Experiment: Inhibition of [125I]-Substance P binding to human NK1 receptors in CHO cells
Format: cell-based

Chain of Substance-P receptor (P25103 whole entry): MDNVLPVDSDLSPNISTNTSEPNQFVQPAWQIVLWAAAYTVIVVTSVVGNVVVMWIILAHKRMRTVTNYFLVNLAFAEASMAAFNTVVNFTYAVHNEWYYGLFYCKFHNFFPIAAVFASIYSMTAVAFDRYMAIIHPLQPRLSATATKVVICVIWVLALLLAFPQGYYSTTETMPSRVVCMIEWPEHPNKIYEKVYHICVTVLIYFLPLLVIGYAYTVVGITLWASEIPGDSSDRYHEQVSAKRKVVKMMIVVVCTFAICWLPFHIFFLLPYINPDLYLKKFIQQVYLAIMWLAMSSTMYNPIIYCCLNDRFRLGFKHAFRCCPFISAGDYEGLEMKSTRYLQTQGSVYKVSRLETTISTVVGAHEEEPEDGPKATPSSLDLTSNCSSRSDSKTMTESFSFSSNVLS

| Structure (SMILES) | IC50 |
| --- | --- |
| CCCCCN(CCCCC)C(=O)N1CCN(C(=O)N(c2ccccc2)c2ccccc2)[C@H](C(=O)NCCCN(CC)CC)C1 | 41 nM |
| CCCCCN(CCCCC)C(=O)N1CCN(C(=O)N(c2ccccc2)c2ccccc2)[C@H](CO)C1 | 280 nM |
| CCCCCN(CCCCC)C(=O)N1CCN(C(=O)N(c2ccccc2)c2ccccc2)[C@H](C(=O)N(C)CCN(C)Cc2ccccc2)C1 | 290 nM |
| CCCCCN(CCCCC)C(=O)N1CCN(C(=O)N(c2ccccc2)c2ccccc2)[C@H](C(=O)N(C)CCN(C)Cc2cc(C)cc(C)c2)C1 | 200 nM |
| CCCCCN(CCCCC)C(=O)N1CCN(C(=O)N(c2ccccc2)c2ccccc2)[C@H](C(=O)O)C1 | 130 nM |
| CCCCCN(CCCCC)C(=O)N1CCN(C(=O)N(c2ccccc2)c2ccccc2)[C@H](C(=O)NCCN(C)C)C1 | 55 nM |
| CCCCCN(CCCCC)C(=O)N1CCN(C(=O)N(c2ccccc2)c2ccccc2)[C@H](C(=O)NCCN)C1 | 57 nM |
| CCCCCN(CCCCC)C(=O)N1CCN(C(=O)N(c2ccccc2)c2ccccc2)CC1 | 500 nM |
| CCCCCN(CCCCC)C(=O)N1CCN(C(=O)N(c2ccccc2)c2ccccc2)[C@H](C(=O)NCCN(C(C)C)C(C)C)C1 | 217 nM |
| CCCCCN(CCCCC)C(=O)N1CCN(C(=O)N(c2ccccc2)c2ccccc2)[C@H](C(=O)N(C)CCN(C)C)C1 | 930 nM |
| CCCCCN(CCCCC)C(=O)N1CCN(C(=O)N(c2ccccc2)c2ccccc2)[C@@H](C(=O)O)C1 | 3000 nM |
| CCCCCN(CCCCC)C(=O)N1CCN(C(=O)N(c2ccccc2)c2ccccc2)[C@H](C(=O)NCCNCc2ccccc2OC)C1 | 9 nM |
| CCCCCN(CCCCC)C(=O)N1CCN(C(=O)N(c2ccccc2)c2ccccc2)[C@H](C(=O)N(C)CCN(C)Cc2ccccc2OC)C1 | 17 nM |
| CCCCCN(CCCCC)C(=O)N1CCN(C(=O)N(c2ccccc2)c2ccccc2)[C@H](C(=O)N(C)CCN(C)Cc2cc(C(F)(F)F)cc(C(F)(F)F)c2)C1 | 1080 nM |
| CCCCCN(CCCCC)C(=O)N1CCN(C(=O)N(c2ccccc2)c2ccccc2)[C@H](C(=O)NCCN(C)Cc2ccccc2OC)C1 | 9 nM |
| CCCCCN(CCCCC)C(=O)N1CCN(C(=O)N(c2ccccc2)c2ccccc2)[C@H](C(=O)NCCNC(C)=O)C1 | 140 nM |
| CCCCCN(CCCCC)C(=O)N1CCN(C(=O)N(c2ccccc2)c2ccccc2)[C@H](C(=O)NCCN(CC)CC)C1 | 11 nM |
| CCCCCN(CCCCC)C(=O)N1CCN(C(=O)N(c2ccccc2)c2ccccc2)[C@H](C(=O)NCC(=O)O)C1 | 597 nM |
| CCCCCN(CCCCC)C(=O)N1CCN(C(=O)N(c2ccccc2)c2ccccc2)[C@H](C(=O)NCCOC)C1 | 267 nM |
